# Test results from ChEMBL document CHEMBL3596159, “Beyond substrate analogues: new inhibitor chemotypes for glycosyltransferases” (Medchemcomm, 2014).
# Columns and labels:
# [1] = Inhibition of sialyltransferase (unknown origin); set-up: species or system Homo sapiens
# [2] = molecular target: Alpha-(1,3)-fucosyltransferase 4 (Homo sapiens, UniProt P22083); assay: Inhibition of FucT-4 (unknown origin)
# [3] = molecular target: UDP-N-acetylglucosamine--N-acetylmuramyl-(pentapeptide) pyrophosphoryl-undecaprenol N-acetylglucosamine transferase (Escherichia coli (strain K12), UniProt P17443); assay: Inhibition of Escherichia coli MurG
# [4] = molecular target: T1, UDP-N-acetylglucosamine--N-acetylmuramyl-(pentapeptide) pyrophosphoryl-undecaprenol N-acetylglucosamine transferase (Escherichia coli (strain K12)) (UniProt P17443); assay: Inhibition of Escherichia coli MurG at 2.5 microg/ml
# T1 sequence (whole entry): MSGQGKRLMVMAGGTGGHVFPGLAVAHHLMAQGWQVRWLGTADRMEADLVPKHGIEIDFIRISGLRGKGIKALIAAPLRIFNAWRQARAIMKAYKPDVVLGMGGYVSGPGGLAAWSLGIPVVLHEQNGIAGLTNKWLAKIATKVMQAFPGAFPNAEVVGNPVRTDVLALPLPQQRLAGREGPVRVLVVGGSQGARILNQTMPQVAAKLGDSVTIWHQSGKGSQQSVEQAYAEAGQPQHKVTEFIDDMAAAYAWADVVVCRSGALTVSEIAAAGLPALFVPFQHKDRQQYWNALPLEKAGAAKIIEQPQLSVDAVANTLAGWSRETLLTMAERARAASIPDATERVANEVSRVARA
# [5] = molecular target: T2, CMP-N-acetylneuraminate-beta-galactosamide-alpha-2,3-sialyltransferase 1 (Homo sapiens, UniProt Q11201); assay: Inhibition of ST3Gal 1 (unknown origin) expressed in High Five cells; set-up: species or system BTI-TN-5B1-4
# T2 sequence (Q11201 whole entry): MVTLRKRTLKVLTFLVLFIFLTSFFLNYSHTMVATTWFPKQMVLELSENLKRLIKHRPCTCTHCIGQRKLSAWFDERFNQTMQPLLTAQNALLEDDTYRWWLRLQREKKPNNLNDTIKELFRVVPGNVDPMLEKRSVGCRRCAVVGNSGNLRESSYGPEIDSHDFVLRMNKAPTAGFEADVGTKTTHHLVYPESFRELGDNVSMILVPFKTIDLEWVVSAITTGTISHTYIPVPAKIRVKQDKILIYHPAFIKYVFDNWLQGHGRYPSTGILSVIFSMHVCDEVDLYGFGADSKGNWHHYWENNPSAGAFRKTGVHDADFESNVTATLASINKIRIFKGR
# [6] = molecular target: UDP-N-acetylglucosamine--peptide N-acetylglucosaminyltransferase 110 kDa subunit (Homo sapiens, UniProt O15294); assay: Inhibition of nucleocytoplasmic OGT (unknown origin)
# [7] = Inhibition of short OGT (unknown origin); set-up: species or system Homo sapiens
# [8] = molecular target: T3, Phospho-N-acetylmuramoyl-pentapeptide-transferase/UDP-N-acetylglucosamine--N-acetylmuramyl-(pentapeptide) pyrophosphoryl-undecaprenol N-acetylglucosamine transf (Escherichia coli K-12, UniProt P0A6W3+P17443); assay: Inhibition of Escherichia coli MraY/MurG; format: protein assay
# T3 sequence (P0A6W3 whole entry): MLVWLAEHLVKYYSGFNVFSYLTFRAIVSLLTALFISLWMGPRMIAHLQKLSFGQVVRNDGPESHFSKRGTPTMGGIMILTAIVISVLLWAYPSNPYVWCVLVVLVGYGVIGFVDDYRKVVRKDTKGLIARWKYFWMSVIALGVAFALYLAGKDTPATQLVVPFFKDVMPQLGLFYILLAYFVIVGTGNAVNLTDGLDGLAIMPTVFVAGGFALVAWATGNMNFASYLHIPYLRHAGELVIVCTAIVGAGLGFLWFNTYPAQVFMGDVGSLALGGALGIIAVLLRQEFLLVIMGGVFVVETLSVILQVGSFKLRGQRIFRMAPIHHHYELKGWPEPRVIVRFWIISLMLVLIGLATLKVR
# T3 sequence (P17443 whole entry): T1 sequence (whole entry)
# [9] = Inhibition of beta-1,4-GalT (unknown origin); set-up: species or system Homo sapiens
# [10] = Inhibition of Candida albicans chitin synthase
# [11] = Inhibition of GTA (unknown origin); set-up: species or system Homo sapiens
# [12] = Inhibition of alpha-(1,3)-GalT (unknown origin); set-up: species or system Homo sapiens
# [13] = molecular target: Histo-blood group ABO system transferase (Homo sapiens, UniProt P16442); assay: Inhibition of GTB (unknown origin)
# [14] = Inhibition of AAGlyB (unknown origin); set-up: species or system Homo sapiens
# [15] = molecular target: T2, CMP-N-acetylneuraminate-beta-galactosamide-alpha-2,3-sialyltransferase 1; assay: Inhibition of ST3Gal 1 (unknown origin)
# [16] = molecular target: T4, Beta-galactoside alpha-2,6-sialyltransferase 1 (Homo sapiens, UniProt P15907); assay: Inhibition of ST6Gal 1 (unknown origin)
# T4 sequence (P15907 whole entry): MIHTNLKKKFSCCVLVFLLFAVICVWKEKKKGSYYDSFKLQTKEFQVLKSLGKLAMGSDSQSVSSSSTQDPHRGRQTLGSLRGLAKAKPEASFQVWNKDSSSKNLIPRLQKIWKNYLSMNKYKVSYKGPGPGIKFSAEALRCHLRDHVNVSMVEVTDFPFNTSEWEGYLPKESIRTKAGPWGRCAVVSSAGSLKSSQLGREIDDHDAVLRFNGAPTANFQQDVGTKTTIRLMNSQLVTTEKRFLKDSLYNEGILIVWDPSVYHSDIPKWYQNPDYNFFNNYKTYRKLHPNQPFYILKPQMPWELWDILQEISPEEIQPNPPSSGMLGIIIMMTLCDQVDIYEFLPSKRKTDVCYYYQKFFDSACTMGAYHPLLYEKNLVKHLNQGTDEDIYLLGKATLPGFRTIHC
# [17] = molecular target: T5, CMP-N-acetylneuraminate-beta-1,4-galactoside alpha-2,3-sialyltransferase (Homo sapiens, UniProt Q11203); assay: Inhibition of ST3N (unknown origin)
# T5 sequence (Q11203 whole entry): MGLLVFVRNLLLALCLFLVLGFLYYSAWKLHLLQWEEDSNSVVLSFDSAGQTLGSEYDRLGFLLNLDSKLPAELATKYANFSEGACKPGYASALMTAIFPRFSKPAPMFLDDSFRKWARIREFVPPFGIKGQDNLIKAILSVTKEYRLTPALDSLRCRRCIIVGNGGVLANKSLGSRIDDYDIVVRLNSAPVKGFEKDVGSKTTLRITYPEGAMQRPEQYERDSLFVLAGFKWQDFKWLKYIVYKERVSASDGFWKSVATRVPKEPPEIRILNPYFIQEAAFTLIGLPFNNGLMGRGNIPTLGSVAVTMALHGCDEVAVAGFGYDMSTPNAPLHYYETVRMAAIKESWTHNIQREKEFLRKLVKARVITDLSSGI
# [18] = molecular target: T6, 4-galactosyl-N-acetylglucosaminide 3-alpha-L-fucosyltransferase FUT5 (Homo sapiens, UniProt Q11128); assay: Non-competitive inhibition of FucT-5 (unknown origin) using LacNAc as acceptor substrate
# T6 sequence (Q11128 whole entry): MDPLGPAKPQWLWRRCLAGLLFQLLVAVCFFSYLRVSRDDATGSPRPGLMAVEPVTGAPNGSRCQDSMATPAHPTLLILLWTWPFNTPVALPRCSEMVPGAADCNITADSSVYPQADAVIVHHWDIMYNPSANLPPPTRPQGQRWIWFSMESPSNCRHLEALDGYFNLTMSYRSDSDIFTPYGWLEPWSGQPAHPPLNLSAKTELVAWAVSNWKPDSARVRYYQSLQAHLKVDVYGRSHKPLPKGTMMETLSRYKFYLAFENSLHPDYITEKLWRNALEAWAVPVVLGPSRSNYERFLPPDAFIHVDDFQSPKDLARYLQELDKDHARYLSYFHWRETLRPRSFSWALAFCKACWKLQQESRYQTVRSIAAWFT
# [19] = molecular target: T6, 4-galactosyl-N-acetylglucosaminide 3-alpha-L-fucosyltransferase FUT5; assay: Inhibition of FucT-5 (unknown origin)
# [20] = molecular target: T6, 4-galactosyl-N-acetylglucosaminide 3-alpha-L-fucosyltransferase FUT5; assay: Uncompetitive inhibition of FucT-5 (unknown origin) using GDP-fucose as donor substrate
# [21] = molecular target: T4, Beta-galactoside alpha-2,6-sialyltransferase 1; assay: Inhibition of ST6N (unknown origin)
# [22] = molecular target: T7, 4-galactosyl-N-acetylglucosaminide 3-alpha-L-fucosyltransferase FUT6 (Homo sapiens, UniProt P51993); assay: Inhibition of FucT-6 (unknown origin)
# T7 sequence (P51993 whole entry): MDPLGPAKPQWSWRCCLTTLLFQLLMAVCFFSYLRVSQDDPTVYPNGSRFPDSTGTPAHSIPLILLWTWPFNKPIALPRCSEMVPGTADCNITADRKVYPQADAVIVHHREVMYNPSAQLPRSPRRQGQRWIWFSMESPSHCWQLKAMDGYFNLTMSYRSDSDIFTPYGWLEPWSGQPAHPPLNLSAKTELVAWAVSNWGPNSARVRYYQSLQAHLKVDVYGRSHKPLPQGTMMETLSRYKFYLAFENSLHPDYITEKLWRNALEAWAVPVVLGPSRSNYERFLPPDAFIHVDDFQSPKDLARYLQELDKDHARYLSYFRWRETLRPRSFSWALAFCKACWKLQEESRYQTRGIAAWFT
# [23] = Inhibition of human beta-1,4-GalT
# [24] = Inhibition of bovine beta-1,4-GalT using alpha-Fucp-(1-2)-beta-Galp-O-(CH2)7-CH3 as acceptor and UDP-Gal as substrate by radiochemical assay; set-up: species or system Bos taurus
# [25] = molecular target: T8, Alpha-(1,3)-fucosyltransferase 7 (Homo sapiens, UniProt Q11130); assay: Inhibition of FucT-7 (unknown origin)
# T8 sequence (Q11130 whole entry): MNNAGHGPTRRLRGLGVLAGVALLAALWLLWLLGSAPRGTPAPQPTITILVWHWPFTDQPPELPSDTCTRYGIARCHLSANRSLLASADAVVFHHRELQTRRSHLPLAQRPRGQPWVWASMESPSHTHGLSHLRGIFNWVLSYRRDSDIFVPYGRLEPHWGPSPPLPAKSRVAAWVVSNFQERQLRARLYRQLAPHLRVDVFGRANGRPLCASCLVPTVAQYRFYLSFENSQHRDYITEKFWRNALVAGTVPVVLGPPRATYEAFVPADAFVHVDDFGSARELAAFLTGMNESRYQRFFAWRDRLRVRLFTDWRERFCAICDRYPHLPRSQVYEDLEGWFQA
# [26] = molecular target: Beta-galactoside alpha-2,6-sialyltransferase 1 (Rattus norvegicus, UniProt P13721); assay: Inhibition of rat ST6Gal1
# [27] = molecular target: CMP-N-acetylneuraminate-beta-1,4-galactoside alpha-2,3-sialyltransferase (Rattus norvegicus, UniProt Q02734); assay: Inhibition of rat ST3Gal3
# [28] = molecular target: T4, Beta-galactoside alpha-2,6-sialyltransferase 1; assay: Inhibition of human ST6Gal1
# Staphylococcus aureus = assay: Antimicrobial activity against methicillin-resistant Staphylococcus aureus; format: functional
# [29] = Inhibition of methicillin-resistant Staphylococcus aureus MurG
# Sequence of UDP-N-acetylglucosamine--peptide N-acetylglucosaminyltransferase 110 kDa subunit (O15294 whole entry): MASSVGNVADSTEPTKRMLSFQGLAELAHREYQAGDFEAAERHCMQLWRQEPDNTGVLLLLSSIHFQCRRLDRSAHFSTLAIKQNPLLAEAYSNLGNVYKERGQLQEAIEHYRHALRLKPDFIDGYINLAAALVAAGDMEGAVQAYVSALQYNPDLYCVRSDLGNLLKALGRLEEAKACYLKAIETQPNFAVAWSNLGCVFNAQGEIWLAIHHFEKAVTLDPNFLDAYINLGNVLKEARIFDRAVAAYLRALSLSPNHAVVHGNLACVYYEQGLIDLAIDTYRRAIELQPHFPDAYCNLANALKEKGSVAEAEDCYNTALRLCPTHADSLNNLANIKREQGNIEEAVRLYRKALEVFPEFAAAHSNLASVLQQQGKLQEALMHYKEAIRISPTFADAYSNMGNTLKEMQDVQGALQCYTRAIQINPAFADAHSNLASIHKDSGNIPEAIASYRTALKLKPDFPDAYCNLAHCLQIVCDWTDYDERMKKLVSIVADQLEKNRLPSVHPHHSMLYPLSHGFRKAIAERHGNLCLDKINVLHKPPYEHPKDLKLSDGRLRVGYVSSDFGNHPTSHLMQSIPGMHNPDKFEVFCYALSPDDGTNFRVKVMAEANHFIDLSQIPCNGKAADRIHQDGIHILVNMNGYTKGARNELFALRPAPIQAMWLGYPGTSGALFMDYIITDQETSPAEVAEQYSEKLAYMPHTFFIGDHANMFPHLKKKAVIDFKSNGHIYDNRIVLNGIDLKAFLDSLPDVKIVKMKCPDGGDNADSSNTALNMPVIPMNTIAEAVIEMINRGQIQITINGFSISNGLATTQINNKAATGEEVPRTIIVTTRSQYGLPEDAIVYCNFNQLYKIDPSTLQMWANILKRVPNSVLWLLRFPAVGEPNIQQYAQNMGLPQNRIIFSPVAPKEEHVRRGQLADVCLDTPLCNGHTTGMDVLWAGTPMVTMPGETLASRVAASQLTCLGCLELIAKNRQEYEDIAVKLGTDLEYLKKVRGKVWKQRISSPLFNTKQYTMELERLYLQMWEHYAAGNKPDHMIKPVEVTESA
# Sequence of Beta-galactoside alpha-2,6-sialyltransferase 1 (Rattus norvegicus, UniProt P13721) (P13721 whole entry): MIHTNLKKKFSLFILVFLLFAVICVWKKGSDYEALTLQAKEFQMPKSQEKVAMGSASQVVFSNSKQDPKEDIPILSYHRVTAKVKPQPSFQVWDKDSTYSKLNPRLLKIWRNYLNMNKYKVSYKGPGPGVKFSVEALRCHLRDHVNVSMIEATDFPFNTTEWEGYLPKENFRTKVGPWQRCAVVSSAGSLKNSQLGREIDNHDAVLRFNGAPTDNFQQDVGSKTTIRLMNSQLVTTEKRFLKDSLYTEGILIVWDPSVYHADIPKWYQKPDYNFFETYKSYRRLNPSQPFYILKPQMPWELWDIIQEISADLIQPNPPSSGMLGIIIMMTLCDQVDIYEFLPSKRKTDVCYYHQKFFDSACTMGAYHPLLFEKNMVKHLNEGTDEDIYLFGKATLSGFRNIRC
# Sequence of Alpha-(1,3)-fucosyltransferase 4 (P22083 whole entry): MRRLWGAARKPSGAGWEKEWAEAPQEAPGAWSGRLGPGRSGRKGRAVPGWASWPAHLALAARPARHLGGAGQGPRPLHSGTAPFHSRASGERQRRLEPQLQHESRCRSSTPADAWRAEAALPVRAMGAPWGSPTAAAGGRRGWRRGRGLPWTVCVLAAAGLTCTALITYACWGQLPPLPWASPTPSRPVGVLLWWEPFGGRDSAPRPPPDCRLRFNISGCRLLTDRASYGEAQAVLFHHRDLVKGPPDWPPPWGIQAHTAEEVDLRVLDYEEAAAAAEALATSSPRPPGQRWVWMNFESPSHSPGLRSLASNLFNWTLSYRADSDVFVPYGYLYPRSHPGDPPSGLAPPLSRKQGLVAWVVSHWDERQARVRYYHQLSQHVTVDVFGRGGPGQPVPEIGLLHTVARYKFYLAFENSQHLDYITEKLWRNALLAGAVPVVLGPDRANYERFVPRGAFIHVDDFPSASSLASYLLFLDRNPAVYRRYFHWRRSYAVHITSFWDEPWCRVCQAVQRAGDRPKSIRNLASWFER
# Sequence of Histo-blood group ABO system transferase (P16442 whole entry): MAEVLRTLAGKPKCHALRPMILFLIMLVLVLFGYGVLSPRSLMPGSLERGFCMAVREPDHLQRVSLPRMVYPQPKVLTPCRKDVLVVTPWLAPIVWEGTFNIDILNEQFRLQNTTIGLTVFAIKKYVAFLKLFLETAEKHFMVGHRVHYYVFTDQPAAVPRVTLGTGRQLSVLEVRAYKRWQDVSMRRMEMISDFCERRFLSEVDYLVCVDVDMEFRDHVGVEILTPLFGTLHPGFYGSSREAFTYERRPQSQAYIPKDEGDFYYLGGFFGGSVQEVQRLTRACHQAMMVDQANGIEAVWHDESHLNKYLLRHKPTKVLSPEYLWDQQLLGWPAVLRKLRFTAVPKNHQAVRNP
# Sequence of CMP-N-acetylneuraminate-beta-1,4-galactoside alpha-2,3-sialyltransferase (Rattus norvegicus, UniProt Q02734) (Q02734 whole entry): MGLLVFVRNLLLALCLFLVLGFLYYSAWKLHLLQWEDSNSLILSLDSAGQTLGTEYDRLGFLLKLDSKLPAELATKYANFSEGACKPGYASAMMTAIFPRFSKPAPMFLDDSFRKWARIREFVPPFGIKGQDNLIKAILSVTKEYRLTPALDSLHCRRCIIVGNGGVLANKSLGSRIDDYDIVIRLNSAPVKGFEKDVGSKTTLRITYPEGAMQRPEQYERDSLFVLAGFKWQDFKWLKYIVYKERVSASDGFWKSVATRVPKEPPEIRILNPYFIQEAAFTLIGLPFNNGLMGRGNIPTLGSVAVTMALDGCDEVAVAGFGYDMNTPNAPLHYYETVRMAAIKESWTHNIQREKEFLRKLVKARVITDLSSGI
molecule,measurement,setting,value
O=C(O)c1cc(O)c(O)c(O)c1 [GALLIC ACID],IC50,[1],19 µM
same,IC50,[2],14 µM
CC1CCN(CN2C(=O)/C(=C\c3ccc(C(C)(C)C)cc3)SC2=S)CC1,Ki,[3],1.3 µM
same,inhibition,[4],88%
H-GNWWWW-OH,Ki,[5],1.1 µM
O=C(O)C1CC(=O)N(CC23CC4CC(CC(C4)C2)C3)/C(=N/c2ccc(Cl)cc2)S1 (stereo not drawn),IC50,[6],53 µM
same,IC50,[7],30 µM
N#Cc1ccc(CSc2nc(-c3cccs3)c3c(c2C(=O)O)CCCC3)cc1,IC50,[6],100 µM
same,IC50,[7],60 µM
CN[C@H](CC(C)C)C(=O)N[C@H]1C(=O)N[C@@H](CC(N)=O)C(=O)N[C@H]2C(=O)N[C@H]3C(=O)N[C@H](C(=O)N[C@H](C(=O)O)c4cc(O)cc(O)c4-c4cc3ccc4O)[C@H](O)c3ccc(c(Cl)c3)Oc3cc2cc(c3O[C@@H]2O[C@H](CO)[C@@H](O)[C@H](O)[C@H]2O[C@H]2C[C@](C)(N)[C@H](O)[C@H](C)O2)Oc2ccc(cc2Cl)[C@H]1O [VANCOMYCIN],IC50,[3],10 µM
same,IC50,[8],9 µM
O=C(NC[C@H]1O[C@@H](n2ccc(=O)[nH]c2=O)[C@H](O)[C@@H]1O)c1cccc(CO[C@@H]2O[C@H](CO)[C@H](O)[C@H](O)[C@H]2O)n1,IC50,[9],152 µM
C[C@@H]([C@H](N)C(=O)N[C@H](C(=O)O)[C@H]1O[C@@H](n2ccc(=O)[nH]c2=O)[C@H](O)[C@@H]1O)[C@H](O)c1ccc(O)cn1 [NIKKOMYCIN],Ki,[10],0.16 µM
c1ccc(-c2nsc(N3CCNCC3)n2)cc1,Ki,[11],5100 µM
same,Ki,[12],6300 µM
same,Ki,[13],800 µM
same,Ki,[14],> 15000 µM
C[C@H](CCC(=O)O)[C@H]1CC[C@H]2[C@@H]3CC[C@@H]4C[C@H](OC(=O)[C@H](CCC(=O)O)Nc5ccc([N+](=O)[O-])c6nonc56)CC[C@]4(C)[C@H]3CC[C@]12C,IC50,[15],0.88 µM
same,IC50,[16],1.5 µM
C[C@@H]1CC[C@H]2C(C)(C)[C@H](O)CC[C@]2(C)[C@@]12Cc1c(O)cc(C=O)c(C=O)c1O2,IC50,[17],10 µM
same,Ki,[18],9.7 µM
same,IC50,[19],11.3 µM
same,Ki,[20],10.7 µM
same,IC50,[15],6.7 µM
same,IC50,[21],0.61 µM
same,IC50,[22],20.9 µM
CC(=O)N[C@H]1[C@H](O[C@H]2[C@@H](O)[C@@H](CO)O[C@@H](OCc3ccc4ccccc4c3)[C@@H]2O)O[C@H](CO)C[C@@H]1O,Ki,[23],192 µM
O=Cc1ccc(-c2cn([C@@H]3O[C@H](COP(=O)(O)OP(=O)(O)O[C@H]4O[C@H](CO)[C@H](O)[C@H](O)[C@H]4O)[C@@H](O)[C@H]3O)c(=O)[nH]c2=O)s1,Ki,[24],39 µM
O=C(O[C@H]1Cc2c(O)cc(O)cc2O[C@H]1c1cc(O)c(O)c(O)c1)c1cc(O)c(O)c(O)c1,IC50,[17],2.7 µM
same,IC50,[2],1.8 µM
same,IC50,[25],0.7 µM
O=c1cc(-c2ccc(O)c(O)c2)oc2ccccc12,IC50,[26],5.1 µM
same,IC50,[27],1.4 µM
same,IC50,[28],7.1 µM
C[C@]12Cc3cnn(-c4ccncc4)c3C=C1CC[C@@H]1[C@@H]2CC[C@@]2(C)[C@H]1CC[C@]2(O)C(=O)CO,MIC,Staphylococcus aureus,2 µg/mL
same,IC50,[29],115 µg/mL
O=c1c(O)c(-c2ccc(O)c(O)c2)oc2ccccc12,IC50,[26],1.9 µM
same,IC50,[28],7.5 µM
